Literature values, collected in US6235494A, “Substrates for assessing mannan-binding protein-associated serine protease activity and methods using the substrates” (The Scripps Research Institute, priority 1999, dated 2001).

Experiments:
[1] = system: C4a
[2] = system: classical pathway
[3] = system: thrombin
[4] = system: Hageman factor
[5] = system: C1r
[6] = system: C1s
[7] = system: alternative pathway
[8] = system: Factor B
[9] = system: kallikrein (plasma and pancreatic)
[10] = system: Factor D
[11] = system: complement activation (C3a and C4a); conditions: normal individuals
[12] = system: plasmin
[13] = system: MASP
[14] = system: Factor Xa
[15] = system: classical pathway; remark: listed apart in the source
[16] = system: alternative pathway; remark: listed apart in the source
[17] = system: coagulation pathway

SMILES	C4a generated upon addition of EDTA ([1]; benzamidine-containing whole blood, EDTA added)	inhibition of complement-mediated hemolysis by the classical pathway [2]	inhibition of thrombin [3]	effective toward Hageman factor [4]	complement proteinase target C1r [5]	complement proteinase target C1s [6]	inhibition of complement-mediated hemolysis by the alternative pathway [7]	complement proteinase target Factor B [8]	inhibition of kallikrein (plasma and pancreatic) [9]	complement proteinase target Factor D [10]	stabilization of freshly drawn blood samples [11]	inhibition of plasmin [12]	inhibition of MASP activity [13]	MASP activity ([13]; in EDTA)	effective toward Factor Xa [14]	block of the classical pathway [15]	block of the alternative pathway [16]	C4a generated in whole blood ([1]; benzamidine added, before EDTA)	block of the coagulation pathway [17]
O=C(O)CN(CCN(CC(=O)O)CC(=O)O)CC(=O)O [EDTA, ethylened laminetetraacetic acid]	high levels of C4a are generated																		
CS(=O)(=O)O.CS(=O)(=O)O.N=C(N)Nc1ccc(C(=O)Oc2ccc3cc(C(=N)N)ccc3c2)cc1 [Futhan, 6-amidino-2-naphthyl p-guanidinobenzoate dimethanesulfonate]		inhibits	inhibits	sub-micromolar level	complement proteinase targets	complement proteinase targets	inhibits	complement proteinase targets	inhibits	complement proteinase targets	effectively stabilizes freshly drawn blood samples	inhibits	inhibits MASP	no MASP activity is observed	sub-micromolar level				
N=C(N)c1ccccc1 [benzamidine]													does not inhibit MASP activity			blocks	blocks	no C4a generated	blocks
